In brackets after ≈: the same amount, converted by molar mass. Entries after “also recorded” stand apart in the source; their conditions may differ.
Experiments:
U2OS.eGFP.PEST cells = test: Cell viability assay (ATP content), U2OS.eGFP.PEST cells; assay type: cell-based, human; details: up to 20 μM, 24 h
Procedure: FIG. 22—Cell viability assay (ATP content) of U2OS.eGFP.PEST cells in the presence of compounds. Measurement ATP content of U2OS.eGFP.PEST cells upon incubating with BRD7087 and BRD5779 (5-20 μM) for 24 h. Error bars represent ±S.D. from technical replicates (n=3).
FIG. 66. Cell viability assay (ATP content) of U2OS.eGFP.PEST cells in the presence of compounds. Measurement of ATP content of U2OS.eGFP.PEST cells upon incubating with BRD7087 and BRD5779 (5-20 μM) for 24 h. Error bars represent ±S.D. from technical replicates (n=3).

[1] = Solubility in PBS determined by mass spectroscopy; assay type: physicochemical; details: aqueous buffer, 24 h incubation at room temperature, read-out: solubility: no detectable aggregation up to
Procedure: FIG. 15—The solubility of BRD7087 compound in PBS as determined by mass spectroscopy after 24 h of incubation at room temperature. Compounds Antipyrine and Clotrimazole were used as positive controls.
FIG. 59. The solubility of BRD7087 compound in PBS as determined by Mass spectroscopy after 24 h of incubation at room temperature. Compounds Antipyrine and Clotrimazole have been used as the positive controls.

S. aureus RN4220 strain [2] = test: Toxicity study of compounds in bacterial culture (no phage); assay type: cell-based; details: 20 μM; 16 h; inhibitor alone
Procedure: FIG. 79. Toxicity study of compounds in bacterial culture. Bacterial growth study in the presence of the compound. Bacterial cell S. aureus RN4220 strain was allowed to grow either in the presence of DMSO or 20 μM of compound BRD7087 or BRD5779 over 16 h. The experiment was performed in three technical replicates.
Bacterial study. Plasmid pRH248 harboring SpCas9, tracrRNA and a single-spacer array ([…]) (SEQ ID 13) No. targeting phage (DNM474 was constructed via BsaI cloning onto pDB114 as described in Heler et al 6. Plate reader growth curves of bacteria infected with phage were conducted as described previously with minor modifications 7. Overnight cultures were diluted 1:100 into 2 ml of fresh BHI supplemented with appropriate antibiotics and 5 mM CaCl2) and grown to an OD600 of ˜0.2. Immune cells carrying pRH248 were diluted with cells lacking CRISPR-Cas in a 1:10,000 ratio. […] To produce plate reader growth curves, 200 μL of infected cultures, normalized for OD600, were transferred to a 96-well plate in triplicate. […]
Bacterial study. […] Plate reader growth curves of bacteria infected with phage were conducted as described previously with minor modifications^7. […] To produce plate reader growth curves, 200 μL of infected cultures, normalized for OD600, were transferred to a 96-well plate in triplicate. […]

HEK293T cells = test: Cell viability assay (ATP content), HEK293T cells; assay type: cell-based; details: up to 20 μM, 24 h
Procedure: FIG. 23—Cell viability assay (ATP content) of […] cells in the presence of compounds. Measurement of ATP content of HEK293T cells upon incubating with BRD7087 and BRD5779 (5-20 μM) for 24 h. Error bars represent ±S.D. from technical replicates (n=3).
FIG. 67. Cell viability assay (ATP content) of HEK293T cells in the presence of compounds. Measurement of ATP content of HEK293T cells upon incubating with BRD7087 and BRD5779 (5-20 μM) for 24 h. Error bars represent ±S.D. from technical replicates (n=3).

SpCas9 = SpCas9 (Streptococcus pyogenes serotype M1, UniProt Q99ZW2); test: mCherry-GFP NHEJ assay; assay type: cell-based; details: HEK293T cells; 2-10 μM; 24 h
Sequence of SpCas9 (Q99ZW2 whole entry): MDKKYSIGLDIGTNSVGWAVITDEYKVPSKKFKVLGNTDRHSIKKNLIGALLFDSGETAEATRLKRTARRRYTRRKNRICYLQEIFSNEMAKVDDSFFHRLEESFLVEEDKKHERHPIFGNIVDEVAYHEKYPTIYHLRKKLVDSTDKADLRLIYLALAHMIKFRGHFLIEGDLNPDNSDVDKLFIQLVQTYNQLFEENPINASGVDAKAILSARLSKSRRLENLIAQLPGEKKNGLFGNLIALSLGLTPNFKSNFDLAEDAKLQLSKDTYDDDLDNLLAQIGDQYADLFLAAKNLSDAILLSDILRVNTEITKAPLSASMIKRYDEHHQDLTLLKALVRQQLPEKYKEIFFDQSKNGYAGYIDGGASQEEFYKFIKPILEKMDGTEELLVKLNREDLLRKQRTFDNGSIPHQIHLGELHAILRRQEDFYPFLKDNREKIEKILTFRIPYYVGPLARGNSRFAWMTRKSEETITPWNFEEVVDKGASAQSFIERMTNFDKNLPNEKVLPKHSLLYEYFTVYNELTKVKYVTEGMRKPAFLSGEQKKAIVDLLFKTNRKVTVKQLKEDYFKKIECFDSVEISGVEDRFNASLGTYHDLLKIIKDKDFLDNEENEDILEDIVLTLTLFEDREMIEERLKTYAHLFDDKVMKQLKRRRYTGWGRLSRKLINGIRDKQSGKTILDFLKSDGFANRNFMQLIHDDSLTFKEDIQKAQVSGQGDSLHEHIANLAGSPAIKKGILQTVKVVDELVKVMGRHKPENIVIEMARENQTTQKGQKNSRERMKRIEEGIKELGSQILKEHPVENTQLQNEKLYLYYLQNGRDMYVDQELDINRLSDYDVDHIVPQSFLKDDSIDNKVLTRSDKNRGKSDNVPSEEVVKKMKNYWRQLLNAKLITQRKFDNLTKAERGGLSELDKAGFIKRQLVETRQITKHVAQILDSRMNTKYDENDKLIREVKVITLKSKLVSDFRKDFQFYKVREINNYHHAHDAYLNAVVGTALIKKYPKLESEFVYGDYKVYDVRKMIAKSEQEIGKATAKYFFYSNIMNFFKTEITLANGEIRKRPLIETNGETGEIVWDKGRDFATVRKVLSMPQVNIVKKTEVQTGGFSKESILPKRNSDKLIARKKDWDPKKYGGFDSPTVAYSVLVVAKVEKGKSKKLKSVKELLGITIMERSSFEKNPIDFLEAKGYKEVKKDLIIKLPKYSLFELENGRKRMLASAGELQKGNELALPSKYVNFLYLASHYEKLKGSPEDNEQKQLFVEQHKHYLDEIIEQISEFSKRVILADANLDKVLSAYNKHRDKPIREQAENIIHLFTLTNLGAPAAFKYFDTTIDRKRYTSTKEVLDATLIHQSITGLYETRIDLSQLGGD
Procedure: NHEJ assay. Approximately 8,000 cells/well were plated in a 96-well format 24 h before transiently transfected with a total 100 ng of DN66 (mCherry-TAG-GFP reporter) and DN78 (SpCas9 and gRNA) plasmids (1:1) using lipofectamine 2000 (Life Technologies) 3. Transfected cells were allowed to grow in the indicated amount of compound or DMSO for 24 h. Cells were then fixed using 4% paraformaldehyde and imaged with the HCS NuclearMask™ Blue Stain (Life Technologies) as the nuclear counter-staining agent. Imaging was performed with an IXM 137204 ImageXpress Automated High Content Microscope (Molecular Devices) at 20× magnification under three excitation channels (blue, green and red) with 9 acquiring sites per well. Images were analyzed in the MetaXpress software to determine the % NHEJ and the data were plotted using GraphPad Prism 6. The Z′-value was calculated following the formula: […]

S. aureus RN4220 strain [3] = test: Bacterial resistance study against phage (CRISPR-immunity, OD600 growth curves); assay type: cell-based; details: 5-20 μM; for blockage of CRISPR-immunity: sensitization of immune bacterial cells to phage: OD600 over 16 hours, phage MOI 1
Procedure: (§1) Bacterial study. Plasmid pRH248 harboring SpCas9, tracrRNA and a single-spacer array ([…]) (SEQ ID 13) No. targeting phage (DNM474 was constructed via BsaI cloning onto pDB114 as described in Heler et al 6. Plate reader growth curves of bacteria infected with phage were conducted as described previously with minor modifications 7. Overnight cultures were diluted 1:100 into 2 ml of fresh BHI supplemented with appropriate antibiotics and 5 mM CaCl2) and grown to an OD600 of ˜0.2. Immune cells carrying pRH248 were diluted with cells lacking CRISPR-Cas in a 1:10,000 ratio. Following a 15-minute pre-incubation with DMSO or with varying amounts of inhibitors (5-20 μM), the cultures were infected with <DNM474 at an initial MOI of 1. To produce plate reader growth curves, 200 μL of infected cultures, normalized for OD600, were transferred to a 96-well plate in triplicate. OD600 measurements were collected every 10 minutes for 16 hours. Similarly, growth curves to evaluate the toxicity of the compounds at 20 μM (FIG. 32) were conducted on cultures lacking CRISPR in the absence of phage.
as §1, with “NO:38)” for “13) No.”, “DNM474” for “(DNM474”, “al^6.” for “al 6.”, “modifications^7.” for “modifications 7.”, “DNM474” for “<DNM474”, “Similarly, growth curves to evaluate the toxicity of the compounds at 20 μM (FIG. 32) were conducted on cultures lacking CRISPR in the absence of phage.” left out

| Structure (SMILES) | cytotoxicity: cellular ATP-levels (U2OS.eGFP.PEST cells) | solubility at 24 h [1] [µM] | toxicity to bacteria in the absence of phage (S. aureus RN4220 strain [2]) | cytotoxicity: cellular ATP-levels (HEK293T cells) | inhibition of SpCas9-mediated NHEJ (SpCas9) | activity in phage assay compared with BRD5779 (S. aureus RN4220 strain [3]) | blockage of CRISPR-immunity: sensitization of immune bacterial cells to phage (S. aureus RN4220 strain [3]) |
| --- | --- | --- | --- | --- | --- | --- | --- |
| OC[C@H]1Nc2ccc(-c3cccc(F)c3)cc2[C@H]2[C@@H]1CCN2Cc1ccncc1 [BRD7087, ((3aR,4S,9bR)-8-(3-Fluorophenyl)-1-(pyridin-4-ylmethyl)-2,3,3a,4,5,9b-hexahydro-1H-pyrrolo[3,2-c]quinolin-4-yl)methanol] | did not significantly alter the cellular ATP-levels | ~75 (≈ 29.2 µg/mL) | non-toxic in the absence of phage | did not significantly alter the cellular ATP-levels | Dose-dependent inhibition of SpCas9-mediated NHEJ; also recorded: active | higher activity | able to sensitize the immune bacterial cells against target phage in a dose-dependent manner; also recorded: dose-dependent blockage of CRISPR-Cas9 based immunity |
| COc1ccc(-c2ccc3c(c2)[C@H]2[C@H](CCN2Cc2ccncc2)[C@@H](CO)N3)cc1 [BRD5779, ((3aR,4S,9bR)-8-(4-Methoxyphenyl)-1-(pyridin-4-ylmethyl)-2,3,3a,4,5,9b-hexahydro-1H-pyrrolo[3,2-c]quinolin-4-yl)methanol] | did not significantly alter the cellular ATP-levels | ~75 (≈ 30.1 µg/mL) | non-toxic in the absence of phage | did not significantly alter the cellular ATP-levels | Dose-dependent inhibition of SpCas9-mediated NHEJ; also recorded: active |  | able to sensitize the immune bacterial cells against target phage in a dose-dependent manner; also recorded: dose-dependent blockage of CRISPR-Cas9 based immunity |
